In data set [1] the test system is Human immunodeficiency virus 1. The data set is described as follows: Antiviral activity against HIV1 Ba-L(R5) infected in human PBMC by p24 antigen capture assay. To be noted: Human immunodeficiency virus 1, Ba-L(R5).
Data set [2] can be described thus: Cmax in rat at 30 mg/kg, po administered as single dose. Format: ADME, organism-based. The arrangement: dose 30 mg/kg, route oral. To be noted: in vivo.
Data set [3] concerns Rattus norvegicus. The data set is described as follows: Bioavailability in rat at 30 mg/kg, po administered as single dose. Format: ADME, organism-based. The following applies: in vivo.
Data set [4] is described as follows: Solubility of the compound. It counts as physicochemical.
Data set [5] has as its system Liver microsomes. The data set is described as follows: Metabolic stability in rat liver microsomes assessed as compound remaining after 15 mins. To be noted: 0.25 h. It counts as ADME, Microsome. For orientation: Microsomes from liver hold many membrane-bound enzymes, among them those of drug oxidation.
Data set [6] relates to Rattus norvegicus. As to the kind of experiment: Half life in rat at 30 mg/kg, po administered as single dose. Format: ADME, organism-based. To be noted: in vivo. The arrangement: dose 30 mg/kg, route oral.
Data set [7] has as its system Rattus norvegicus. As to the kind of experiment: AUC (0 to infinity) in rat at 30 mg/kg, po administered as single dose. Format: ADME, organism-based, Plasma. The arrangement: time infinity, dose 30 mg/kg, route oral. To be noted: in vivo.
For data set [8], the system named is Rattus norvegicus. As to the kind of experiment: AUC (0 to infinity) in rat at 30 mg/kg, iv. It counts as ADME, organism-based, Plasma. The arrangement: time infinity, dose 30 mg/kg, route intravenous. To be noted: in vivo.
For data set [9], the system named is Rattus norvegicus. The data set is described as follows: Half life in rat at 30 mg/kg, iv. Format: ADME, organism-based. More on the design: dose 30 mg/kg, route intravenous. To be noted: in vivo.
Data set [10] has as its target C-C chemokine receptor type 5 (Homo sapiens, UniProt P51681). The data set is described as follows: Antagonist activity at human CCR5 receptor overexpressed in CHO cells assessed as inhibition of MIP-1-alpha-induced calcium mobilization. Format: functional, cell-based. (In general: Calcium flux is commonly read through the fluorescence of an indicator in the cells.)

Sequence of C-C chemokine receptor type 5 (P51681 whole entry): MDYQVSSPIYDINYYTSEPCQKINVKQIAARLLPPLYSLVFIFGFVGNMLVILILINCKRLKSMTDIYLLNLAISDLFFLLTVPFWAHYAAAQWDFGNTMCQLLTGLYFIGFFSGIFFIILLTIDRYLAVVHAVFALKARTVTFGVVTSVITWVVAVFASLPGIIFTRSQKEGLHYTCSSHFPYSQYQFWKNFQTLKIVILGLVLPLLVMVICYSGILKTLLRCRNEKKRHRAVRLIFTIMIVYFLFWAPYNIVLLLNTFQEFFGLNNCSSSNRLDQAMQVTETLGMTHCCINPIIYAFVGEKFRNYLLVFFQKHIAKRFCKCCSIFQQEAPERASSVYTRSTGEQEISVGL

As for `Cc1c(O)cccc1C(=O)N[C@@H](CSc1ccccc1)[C@H](O)CN1C[C@H]2CCCC[C@H]2C[C@H]1C(=O)NC(C)(C)C`, half-maximal inhibition in [1] (IC50) was put at 12 nM.

For `CCCCN1C(=O)C(CC2CCCCC2)NC(=O)C12CCN(Cc1ccc(Oc3ccccc3)cc1)CC2.Cl` (racemic), the concentration in data set [2] peaked (Cmax) at 16.7 ng/mL. The same compound displayed a F in [3] of 1.9%. Further, the solubility (usually the dissolved amount per volume that the medium holds) in data set [4] was under 5 µM. The Stability in [5] turned out to be 33%. Moreover, the t1/2 in data set [6] was determined as 1.72 h; in data set [9] it was 0.332 h. Besides, the AUC – broadly, the area under the concentration-time curve, a measure of exposure – in [7] is 74.4 ng·h/mL; in data set [8] it was 400 ng·h/mL.

For the compound `CCCCN1C(=O)C(CC(C)C)NC(=O)C12CCN(Cc1ccc3c(c1)OCCO3)CC2` (racemic), in data set [10], the IC50 – broadly, the concentration that inhibits the measured activity by half – came to 180 nM.
